Earlier results, collected in publication PMC9516332 (Frontiers in Oncology, 2022).
Like-named read-outs stand apart in the source and are kept apart here.

Tests used:
Settings in all cases: cited from earlier work
[1] = biological target: T1, panel of 255 wild-type kinases (Homo sapiens, UniProt Q8TD19)
T1 sequence (Q8TD19 1-979): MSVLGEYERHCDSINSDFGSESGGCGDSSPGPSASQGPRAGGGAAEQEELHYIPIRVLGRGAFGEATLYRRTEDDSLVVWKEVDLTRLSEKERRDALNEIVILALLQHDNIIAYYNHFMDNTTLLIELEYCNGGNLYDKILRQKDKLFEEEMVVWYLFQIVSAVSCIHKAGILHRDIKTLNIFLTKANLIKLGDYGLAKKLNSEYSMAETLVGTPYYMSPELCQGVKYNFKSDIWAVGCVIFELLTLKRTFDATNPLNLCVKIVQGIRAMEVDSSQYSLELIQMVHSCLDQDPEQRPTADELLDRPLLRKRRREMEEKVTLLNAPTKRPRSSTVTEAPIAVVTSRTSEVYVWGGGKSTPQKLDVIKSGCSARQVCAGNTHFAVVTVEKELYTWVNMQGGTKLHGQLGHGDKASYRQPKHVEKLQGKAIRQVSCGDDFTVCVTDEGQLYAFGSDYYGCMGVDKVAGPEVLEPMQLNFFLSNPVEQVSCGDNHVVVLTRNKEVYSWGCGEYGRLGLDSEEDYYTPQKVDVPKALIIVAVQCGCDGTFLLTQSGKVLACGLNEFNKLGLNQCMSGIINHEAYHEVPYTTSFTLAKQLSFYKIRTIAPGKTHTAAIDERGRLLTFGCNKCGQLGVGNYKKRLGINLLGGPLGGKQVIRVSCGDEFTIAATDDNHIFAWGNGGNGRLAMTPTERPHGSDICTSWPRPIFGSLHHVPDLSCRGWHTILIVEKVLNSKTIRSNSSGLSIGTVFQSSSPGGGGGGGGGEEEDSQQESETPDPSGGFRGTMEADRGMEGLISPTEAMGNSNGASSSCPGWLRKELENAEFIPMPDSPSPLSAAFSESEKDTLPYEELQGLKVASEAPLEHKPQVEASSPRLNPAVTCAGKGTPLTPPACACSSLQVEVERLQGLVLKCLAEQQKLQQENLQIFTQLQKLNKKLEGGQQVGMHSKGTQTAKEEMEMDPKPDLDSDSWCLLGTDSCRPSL

[2] = biological target: T2, panel of 255 wild-type kinases (Homo sapiens, UniProt O00141)
T2 sequence (O00141 1-431): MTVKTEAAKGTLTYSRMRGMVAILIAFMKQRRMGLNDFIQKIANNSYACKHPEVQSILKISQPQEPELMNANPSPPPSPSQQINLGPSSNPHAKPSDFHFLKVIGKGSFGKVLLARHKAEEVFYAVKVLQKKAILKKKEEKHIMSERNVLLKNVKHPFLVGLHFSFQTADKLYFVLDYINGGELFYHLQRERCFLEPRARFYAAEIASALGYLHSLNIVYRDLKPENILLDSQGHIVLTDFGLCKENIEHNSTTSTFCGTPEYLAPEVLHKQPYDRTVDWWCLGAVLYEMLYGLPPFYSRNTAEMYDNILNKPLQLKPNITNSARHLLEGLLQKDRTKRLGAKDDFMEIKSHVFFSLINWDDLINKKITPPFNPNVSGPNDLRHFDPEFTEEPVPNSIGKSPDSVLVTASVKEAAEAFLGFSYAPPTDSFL

[3] = biological target: panel of 255 wild-type kinases (Homo sapiens, UniProt P23458)
[4] = biological target: T3, panel of 255 wild-type kinases (Homo sapiens, UniProt O15530)
T3 sequence (O15530 1-556): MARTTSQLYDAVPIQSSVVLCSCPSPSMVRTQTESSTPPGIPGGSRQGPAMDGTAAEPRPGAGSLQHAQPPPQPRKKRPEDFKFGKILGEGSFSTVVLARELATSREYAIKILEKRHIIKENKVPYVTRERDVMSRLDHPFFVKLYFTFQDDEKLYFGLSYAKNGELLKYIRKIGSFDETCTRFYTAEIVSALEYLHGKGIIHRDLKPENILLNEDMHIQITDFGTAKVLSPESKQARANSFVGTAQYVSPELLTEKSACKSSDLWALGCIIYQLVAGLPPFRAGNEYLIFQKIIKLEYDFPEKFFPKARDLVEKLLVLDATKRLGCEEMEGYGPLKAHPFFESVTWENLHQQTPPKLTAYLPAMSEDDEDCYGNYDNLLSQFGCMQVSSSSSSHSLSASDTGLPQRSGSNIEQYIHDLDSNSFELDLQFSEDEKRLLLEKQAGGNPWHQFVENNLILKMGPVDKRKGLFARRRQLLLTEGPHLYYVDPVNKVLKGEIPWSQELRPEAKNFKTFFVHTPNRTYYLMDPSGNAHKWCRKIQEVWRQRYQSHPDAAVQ

[5] = biological target: panel of 255 wild-type kinases (Homo sapiens, UniProt P22455)
[6] = NEK9, 1 µmol/L single concentration, ref DOI: 10.1158/1535-7163.MCT-18-0877
[7] = kinase SGK, 1 µmol/L single concentration, ref DOI: 10.1158/1535-7163.MCT-18-0877
[8] = kinase JAK1, 1 µmol/L single concentration, ref DOI: 10.1158/1535-7163.MCT-18-0877
[9] = kinase PDK1, 1 µmol/L single concentration, ref DOI: 10.1158/1535-7163.MCT-18-0877
[10] = kinase FGFR4, 1 µmol/L single concentration, ref DOI: 10.1158/1535-7163.MCT-18-0877
[11] = NEK9, 1 µmol/L single concentration, ref DOI: 10.1371/journal.pone.0092146
[12] = kinase SGK, 1 µmol/L single concentration, ref DOI: 10.1371/journal.pone.0092146
[13] = kinase JAK1, 1 µmol/L single concentration, ref DOI: 10.1371/journal.pone.0092146
[14] = kinase PDK1, 1 µmol/L single concentration, ref DOI: 10.1371/journal.pone.0092146
[15] = kinase FGFR4, 1 µmol/L single concentration, ref DOI: 10.1371/journal.pone.0092146

| Structure (SMILES) | %-inhibition, NEK9 [1, 6] [%] | %-inhibition at 1 µmol/L, SGK [2, 7] [%] | %-inhibition at 1 µmol/L, JAK1 [3, 8] [%] | %-inhibition at 1 µmol/L, PDK1 [4, 9] [%] | %-inhibition at 1 µmol/L, FGFR4 [5, 10] [%] | %-inhibition, NEK9 [1, 11] [%] | %-inhibition at 1 µmol/L, SGK [2, 12] [%] | %-inhibition at 1 µmol/L, JAK1 [3, 13] [%] | %-inhibition at 1 µmol/L, PDK1 [4, 14] [%] | %-inhibition at 1 µmol/L, FGFR4 [5, 15] [%] | other results |
| --- | --- | --- | --- | --- | --- | --- | --- | --- | --- | --- | --- |
| C=CC(=O)N1CCC[C@@H](n2nc(-c3ccc(Oc4ccccc4)cc3)c3c(N)ncnc32)C1 [ibrutinib] | -3.28 | -21 | -10 | -2 | 37 | – | – | – | – | – | – |
| CC(=O)Nc1cccc(-n2c(=O)n(C3CC3)c(=O)c3c(Nc4ccc(I)cc4F)n(C)c(=O)c(C)c32)c1 [trametinib] | – | – | – | – | – | -3 | 0.217 | -1.83 | -5.52 | -3 | – |
| Cc1cc(Nc2ncc(Cl)c(Nc3ccccc3S(=O)(=O)C(C)C)n2)c(OC(C)C)cc1C1CCNCC1 [ceritinib] | 9 | 2 | -4.51 | -2.25 | 69 | – | – | – | – | – | – |
| C[C@@H](Oc1cc(-c2cnn(C3CCNCC3)c2)cnc1N)c1c(Cl)ccc(F)c1Cl [crizotinib] | – | – | – | – | – | 57 | 1.46 | 47 | -5 | 0 | – |
| C=CC(=O)Nc1cc(Nc2nccc(-c3cn(C)c4ccccc34)n2)c(OC)cc1N(C)CCN(C)C [osimertinib] | 9 | -11 | -6 | 0.0271 | 11 | – | – | – | – | – | – |
| CCCS(=O)(=O)Nc1ccc(F)c(C(=O)c2c[nH]c3ncc(-c4ccc(Cl)cc4)cc23)c1F [vemurafenib] | – | – | – | – | – | -2.2 | -0.122 | 46 | -4 | 5 | – |
| O=C(c1ccc(F)c(F)c1Nc1ccc(I)cc1F)N1CC(O)([C@@H]2CCCCN2)C1 [cobimetinib] | -2.32 | -19 | -8.53 | -1.65 | -0.0569 | – | – | – | – | – | – |
| CC(C)(C)c1nc(-c2cccc(NS(=O)(=O)c3c(F)cccc3F)c2F)c(-c2ccnc(N)n2)s1 [dabrafenib] | – | – | – | – | – | 101 | 4 | 5.7 | -5.38 | 19 | – |
| CO[C@@H]1[C@H](N(C)C(=O)c2ccccc2)C[C@H]2O[C@]1(C)n1c3ccccc3c3c4c(c5c6ccccc6n2c5c31)C(=O)NC4 [midostaurin] | 48 | 31 | 97 | 98 | 38 | – | – | – | – | – | – |
| CC#CC(=O)N1CCC[C@H]1c1nc(-c2ccc(C(=O)Nc3ccccn3)cc2)c2c(N)nccn12 [acalabrutinib] | -3.18 | -5 | -13 | -1.47 | -9 | – | – | – | – | – | – |
| CCc1cc2c(cc1N1CCC(N3CCOCC3)CC1)C(C)(C)c1[nH]c3cc(C#N)ccc3c1C2=O [alectinib] | 0.368 | 12 | -10 | -2.12 | 4 | – | – | – | – | – | – |
| COc1cc(N2CCC(N3CCN(C)CC3)CC2)ccc1Nc1ncc(Cl)c(Nc2ccccc2P(C)(C)=O)n1 [brigatinib] | – | – | – | – | – | – | – | – | – | – | %-inhibition, NEK9 [1]: 70%; %-inhibition at 1 µmol/L, SGK [2]: 4.76%; %-inhibition at 1 µmol/L, JAK1 [3]: 31%; %-inhibition at 1 µmol/L, PDK1 [4]: 4.31%; %-inhibition at 1 µmol/L, FGFR4 [5]: 82% |
